Laboratory results as given in patent US6632668B2, “Monolayer sheet structure of primary hepatocytes obtained using a protein-phosphorylation inhibitor” (Japan as represented by the Secretary of Agency of …, priority 2000, dated 2003).

What was measured:
primary hepatocytes = assay: Monolayer formation of primary hepatocytes on collagen-coated plates, phase contrast microscope observation; format: cell-based, rat; settings: 50 nM staurosporine, 4 h + 20 h standing culture
Procedure: In order to isolate primary hepatocytes, rat livers were used and primary hepatocytes were isolated from the rat livers by ordinary methods, that was, by collagenase perfusion followed method and four subsequent low-speed centrifuge isolation. The hepatocytes were suspended in an animal cell culture medium (Williams' E medium) containing 10 nM Dexamethasone and 10% fetal bovine serum, and seeded at a cell concentration of 10×10^4 cell/cm^2 on 6-well cell culture plastic plates coated with type I collagen. For the samples to be treated, staurosporine was added to the medium to a final concentration of 50 nM. Next, they were subjected to standing culture for 4 hours at 37° C. in a CO2 incubator in the presence of 5% (v/v) CO2, and the medium was replaced with Williams' E medium containing 10 nM insulin, 10 nM dexamethasone and 0.7 μg/ml aprotinin. For the samples to be treated, staurosporine was again added to the medium to a final concentration of 50 nM. Finally, after the standing culture for 20 hours, the condition of the cells was observed through a phase contrast microscope.
The results in FIG. 1 show clearly that in the case of the hepatocytes not treated with staurosporine, cell aggregates are formed, which comprises intermittently linked patch-like discontinuous monolayers of one to tens of cells.

[1] = test system: primary rat hepatocytes monolayer; assay: Dye permeation assay using transwell filters (bromphenol-blue, OD 655 nm); format: cell-based; settings: staurosporine-treated monolayer on transwell filters
Procedure: In parallel with Example 1 above, primary rat hepatocytes were seeded on transwell filters (3-micron pore polytetrafluoroethylene coated with type I collagen) suitable to 24-well cell culture plates, and differences in the tightness of the cell monolayer structure produced by staurosporine treatment were measured by a dye permeation assay.
In the dye permeation assay using transwell filters shown in A of FIG. 2, primary hepatocytes were seeded on transwell filters installed in wells on 24-well cell culture plates, and after the monolayer thereof was formed, 20 μl of dye (0.25% bromphenol-blue dye) was added to the upper liquid layer (medium) on the filter. 50 μl samples were then taken with the passage of time from the lower liquid layer (medium) on the filter at a constant temperature of 37° C., and absorbancy thereof (OD 655 nm) was measured.
In the results of B of FIG. 2, courses with the passage of time of dye permeation through hepatocytes layers formed by conventional methods on transwell filters are indicated by the white circles ◯, while courses of dye permeation through hepatocytes layers formed by the methods of this invention are indicated by black circles ●. […]

With `CNC1CC2OC(C)(C1OC)n1c3ccccc3c3c4c(c5c6ccccc6n2c5c31)C(=O)NC4` (stereo not drawn) [staurosporine, [9S-(9a,10b,11b,13a)]-9,13-epoxy-2,3,10,11,12,13-hexahydro-10-methoxy-9-methyl-11-(methylamino)-1H,9H-diindolo[1,2,3-gh:3′,2′,1′-1m]pyrrolo[3,4-j][1,7]benzodiazonin-1-one] the “cell aggregates formed (monolayer structure)” value (primary hepatocytes; phase contrast microscope x200) was “a confluent continuous monolayer sheet of closely adjoining cells”, the “adhesion (attachment) and extension (spreading) of hepatocytes on culture substrate” value (primary hepatocytes; type I collagen coated plates, versus untreated hepatocytes) was “improved” and the “permeation of dye through hepatocytes monolayer” value ([1]; 0.25% bromphenol-blue, 37° C., versus untreated cell layers) was “much less permeation of dye than that of the untreated cell layers”. For the same compound, the tightness between cells ([1]; concluded from dye permeation) was “greatly enhanced”.
